Series [1] relates to Ldh activity in HFSCs and the interfollicular epidermis. Put plainly: Ldh enzyme activity assay in the epidermis of topically treated animals. It is filed as in vivo, mice. Particulars: topical, 48 hours during telogen. As to the method: (§1) FIG. 7A: Animals treated topically with UK-5099 (20 μM) show pigmentation and hair growth, indicative of entry into anagen, after 8 days of treatment. Full anagen, indicated by full coat of hair, is achieved after 14 days of treatment. […] Images shown are representative of at least 14 mice from 7 independent experiments. Scale bars indicate 100 micrometers. FIG. 7B: Graph showing time to observed phenotype in vehicle versus UK-5099 treated mice. n=6 mice per condition. Shown as mean±SEM. […] Ldh activity is indicated by purple stain; pink is nuclear fast red counterstain. Scale bars indicate 50 micrometers. FIG. 7D: Metabolomic analysis of Lactate on HFSCs isolated from UK-5099 treated skin for 48 hours; Each bar represents the average signal for each condition where n=9 mice pooled from 3 independent experiments. Shown as mean±SEM. Paired t-test was performed, p<0.05.
To determine whether Ldha expression patterns correlate with activity of the Ldh enzyme, a colorimetric-based enzymatic assay was used to assess Ldh activity capacity in situ. Typically performed on protein lysates or aliquots with a plate reader, the Ldh activity assay was adapted to work in situ on frozen tissue sections. […]
(§2) Quantification of the hair cycle across at least 6 pairs of animals (vehicle vs UK-5099) indicated a strong acceleration of the hair cycle, in as few as 6-9 days (FIG. 7B).

Series [2] relates to lactate in sorted HFSCs. Nature of the series: Metabolomic analysis of lactate on HFSCs isolated from treated skin. It is filed as in vivo, mice. The note with it: topical application, skin treated for 48 hours. As for the experimental part: as §1, §2
The subject of series [3] is hair cycle. Nature of the series: Topical treatment of mice in telogen with UK-5099: hair cycle / HFSC activation. In kind it is in vivo. As to the method: as §1, §2
[4] abbreviates: topical treatment of animals in telogen (day 50).

Entries after “also recorded” stand apart in the source; their conditions may differ.

As to `N#C/C(=C\c1cn(-c2ccccc2)c2ccccc12)C(=O)O` [UK-5099, (E)-2-Cyano-3-(1-phenyl-1H-indol-3-yl)acrylic acid], the “Ldh activity in HFSCs and interfollicular epidermis” value in series [1] is recorded as “Ldh enzyme activity also seen in interfollicular epidermis; also recorded: increased Ldh activity”. Moreover, the “total levels of lactate in sorted HFSCs” value in series [2] was “increases total levels of lactate”. In addition, in series [3] (setting [4]), the “effect on the hair cycle” value was “robust acceleration of the hair cycle” and the “effect on the interfollicular epidermis (proliferation)” value is given as “minor hyperproliferation of the interfollicular epidermis”. In series [3] (topical, 20 μM), the “time to full anagen, indicated by full coat of hair” value is 14 days. Moreover, the “skin pathology (entry into anagen)” value in series [3] (topical, 20 μM, at 8 weeks, vehicle remained in telogen) is given as “enter an accelerated anagen”. Besides, the “time to pigmentation and hair growth, indicative of entry into anagen” value in series [3] (topical, 20 μM, vehicle shows none even after 12 days) turned out to be 8 days. In addition, the “time in which acceleration of the hair cycle is seen” value in series [3] (topical, at least 6 pairs of animals, vehicle vs UK-5099) lay in the range of 6 to 9 days.

Source of the values: patent US20220048908A1, “COMPOSITIONS AND METHODS FOR MODULATING HAIR GROWTH” (The Regents of the University of California, priority 2019, published 2022).
